The results in this text go back to US9120812B2, “Pyrimidooxazocine derivatives as mTOR-inhibitors” (SANOFI, priority 2012, dated 2015).

For assay [1], the target named is mTOR (human recombinant aa mTOR 1360-2549) (Homo sapiens (Human), UniProt P42345). Description: mTOR enzymatic test by TR-FRET (phosphorylation of GFP-4EBP1). It counts as biochemical. The method, boiled down:
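After a 30 min room-temperature kinase reaction, EDTA (10 mM final) and Tb-labelled phospho-Thr46 antibody (2 nM final) were added and incubated 60 min. Energy transfer from Tb to phosphorylated GFP-4EBP1 was read at 340 nm excitation, emissions 490/520 nm. Values derive from the 520/490 fluorescence ratio.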
(Time-resolved FRET reads energy transfer from a long-lived donor to a nearby acceptor.)

The next assay deals with PI3Kα (p110α/p85α) (Homo sapiens (Human), UniProt P42336). Description: PI3Kα enzymatic test by measuring the consumption of ATP. It counts as biochemical. The method, boiled down:
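ATP consumption read out by KinaseGlo luminescence after a 90 min reaction of 1.7 μg/ml PI3Kα (p110α/p85α) with 2 μM ATP and 50 μM PIP2, buffered at pH 7.5 (Tris, 10 mM MgCl2, 1 mM EGTA, 0.03% Chaps, 1 mM DTT). Threefold dilution series over ≥10 000-fold range yield IC50.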

Another assay has as its system U87MG tumour cells. Nature of the assay: Test of in vitro proliferation of U87MG tumour cells. It counts as cell-based. To be noted: Homo sapiens, U-87 MG, 72 h, U87MG cells, 72 hours; read-out: U87 Cell Proliferation IC50. Here is the method:
Model 4: Test of in vitro Proliferation of U87MG Tumour Cells.
The cell growth is determined with the reagent CellTiter 96 AQueous One Solution Cell Proliferation Assay from Promega (Cat. No. G3581).

Another assay relates to Akt-pS473 in U87MG cells. The note with it: Homo sapiens, U-87 MG; for IC50: read-out: U87 Akt-pS473 % Inhibition or IC50, nM (IC50), U87MG cells.

Chain of mTOR (human recombinant aa mTOR 1360-2549) (P42345 1360-2549): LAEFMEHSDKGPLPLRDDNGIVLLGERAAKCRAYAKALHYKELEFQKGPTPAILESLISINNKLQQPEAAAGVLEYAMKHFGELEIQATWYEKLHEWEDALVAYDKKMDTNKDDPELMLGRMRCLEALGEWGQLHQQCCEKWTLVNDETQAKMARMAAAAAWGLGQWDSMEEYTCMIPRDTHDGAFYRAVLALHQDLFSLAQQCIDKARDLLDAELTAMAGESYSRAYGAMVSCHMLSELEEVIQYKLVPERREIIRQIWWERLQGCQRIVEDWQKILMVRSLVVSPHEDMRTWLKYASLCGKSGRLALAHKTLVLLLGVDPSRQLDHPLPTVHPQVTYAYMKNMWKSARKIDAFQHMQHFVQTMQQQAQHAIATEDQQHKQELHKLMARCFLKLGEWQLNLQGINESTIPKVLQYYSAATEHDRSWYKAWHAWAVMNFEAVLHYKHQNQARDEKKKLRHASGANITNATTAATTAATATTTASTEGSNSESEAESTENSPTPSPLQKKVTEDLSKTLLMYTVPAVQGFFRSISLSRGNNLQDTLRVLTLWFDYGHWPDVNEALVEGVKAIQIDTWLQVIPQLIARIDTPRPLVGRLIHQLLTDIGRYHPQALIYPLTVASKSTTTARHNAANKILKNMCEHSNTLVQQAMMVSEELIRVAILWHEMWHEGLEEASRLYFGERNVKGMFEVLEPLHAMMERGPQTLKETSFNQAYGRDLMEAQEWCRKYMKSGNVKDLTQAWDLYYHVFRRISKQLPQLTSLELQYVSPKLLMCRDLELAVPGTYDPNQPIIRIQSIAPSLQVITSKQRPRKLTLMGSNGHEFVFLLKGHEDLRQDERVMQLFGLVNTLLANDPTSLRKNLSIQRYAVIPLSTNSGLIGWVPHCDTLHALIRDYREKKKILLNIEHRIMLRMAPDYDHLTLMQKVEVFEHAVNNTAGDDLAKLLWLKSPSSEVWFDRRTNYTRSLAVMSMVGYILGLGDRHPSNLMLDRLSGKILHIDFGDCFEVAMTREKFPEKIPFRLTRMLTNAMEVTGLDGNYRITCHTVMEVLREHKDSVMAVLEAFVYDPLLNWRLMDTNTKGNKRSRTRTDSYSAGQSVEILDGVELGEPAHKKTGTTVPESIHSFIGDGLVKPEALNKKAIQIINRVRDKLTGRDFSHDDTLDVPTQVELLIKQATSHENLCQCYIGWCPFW
Chain of PI3Kα (p110α/p85α) (P42336 whole entry): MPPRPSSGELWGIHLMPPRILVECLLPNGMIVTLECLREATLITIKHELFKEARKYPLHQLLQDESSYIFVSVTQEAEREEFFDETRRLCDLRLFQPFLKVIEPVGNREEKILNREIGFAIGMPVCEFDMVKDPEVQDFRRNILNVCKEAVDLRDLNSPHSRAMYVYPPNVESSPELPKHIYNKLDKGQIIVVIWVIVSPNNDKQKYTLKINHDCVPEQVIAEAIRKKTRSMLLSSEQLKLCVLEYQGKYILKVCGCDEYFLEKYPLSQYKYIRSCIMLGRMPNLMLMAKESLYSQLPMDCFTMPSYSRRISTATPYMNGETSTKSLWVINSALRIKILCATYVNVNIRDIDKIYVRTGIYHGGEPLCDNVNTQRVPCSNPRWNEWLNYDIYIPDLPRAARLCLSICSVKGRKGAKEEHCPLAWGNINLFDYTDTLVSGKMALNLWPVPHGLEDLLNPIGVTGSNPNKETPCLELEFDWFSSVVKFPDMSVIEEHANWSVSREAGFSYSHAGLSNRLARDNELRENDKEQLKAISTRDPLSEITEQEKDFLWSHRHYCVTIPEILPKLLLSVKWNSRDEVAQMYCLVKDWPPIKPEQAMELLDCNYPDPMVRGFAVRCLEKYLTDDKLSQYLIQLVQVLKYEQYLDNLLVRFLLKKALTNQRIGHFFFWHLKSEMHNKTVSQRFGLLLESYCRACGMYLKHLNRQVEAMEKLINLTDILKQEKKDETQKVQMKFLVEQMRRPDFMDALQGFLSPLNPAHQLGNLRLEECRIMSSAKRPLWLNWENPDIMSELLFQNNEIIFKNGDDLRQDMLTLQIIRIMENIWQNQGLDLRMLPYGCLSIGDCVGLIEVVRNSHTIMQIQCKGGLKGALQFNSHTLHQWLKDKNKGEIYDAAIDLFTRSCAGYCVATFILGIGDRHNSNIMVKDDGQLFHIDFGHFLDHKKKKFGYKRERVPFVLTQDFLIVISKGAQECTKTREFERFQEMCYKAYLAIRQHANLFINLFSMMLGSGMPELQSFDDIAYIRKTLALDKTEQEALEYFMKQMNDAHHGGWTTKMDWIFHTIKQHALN
Chain of PI3Kα (p110α/p85α) (P27986 whole entry partner): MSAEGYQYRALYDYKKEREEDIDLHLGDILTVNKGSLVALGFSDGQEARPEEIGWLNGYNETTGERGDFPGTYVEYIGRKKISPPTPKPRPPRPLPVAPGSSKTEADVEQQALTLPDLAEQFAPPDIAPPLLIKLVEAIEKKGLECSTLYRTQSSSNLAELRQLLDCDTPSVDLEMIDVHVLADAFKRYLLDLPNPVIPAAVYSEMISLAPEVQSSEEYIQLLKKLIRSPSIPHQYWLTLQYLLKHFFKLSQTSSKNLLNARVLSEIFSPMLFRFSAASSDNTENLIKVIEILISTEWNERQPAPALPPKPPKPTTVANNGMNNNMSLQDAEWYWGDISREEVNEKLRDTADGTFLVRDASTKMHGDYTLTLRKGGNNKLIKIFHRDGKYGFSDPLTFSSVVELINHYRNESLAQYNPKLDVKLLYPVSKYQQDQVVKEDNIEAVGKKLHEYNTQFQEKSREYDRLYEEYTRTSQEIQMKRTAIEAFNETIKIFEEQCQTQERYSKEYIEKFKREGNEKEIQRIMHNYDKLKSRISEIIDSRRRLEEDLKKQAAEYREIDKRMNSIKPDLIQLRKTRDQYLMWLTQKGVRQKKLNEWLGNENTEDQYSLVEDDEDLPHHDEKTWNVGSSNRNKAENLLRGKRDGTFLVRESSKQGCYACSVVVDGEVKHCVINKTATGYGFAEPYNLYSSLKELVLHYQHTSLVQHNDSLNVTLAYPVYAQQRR

With `CCN1CC(C)(C)Oc2nc(N3CCOC[C@@H]3C)nc(-c3ccc(NC(=O)Nc4ccc(C(=O)N(C)CCN(C)C)cc4)cc3)c2C1=O` [Example 215, N-(2-Dimethylamino-ethyl)-4-(3-{4-[6-ethyl-8,8-dimethyl-2-((S)-3-methylmorpholin-4-yl)-5-oxo-5,6,7,8-tetrahydro-9-oxa-1,3,6-triazabenzocyclohepten-4-yl]phenyl}ureido)-N-methylbenzamide], the IC50 in assay [1] is 48 nM; in the assay with U87MG tumour cells, 32 nM; in the assay with Akt-pS473 in U87MG cells, 33 nM. The “PI3Ka IC50” value on PI3Kα (p110α/p85α) is recorded as 37 nM.

In the case of `CCNC(=O)Nc1ccc(-c2nc(N3CC4CCC(C3)O4)nc3c2C(=O)N(CCOC)CC(C)(C)O3)cc1` [Example 217, 1-Ethyl-3-{4-[6-(2-methoxyethyl)-8,8-dimethyl-2-(8-oxa-3-azabicyclo[3.2.1]oct-3-yl)-5-oxo-5,6,7,8-tetrahydro-9-oxa-1,3,6-triazabenzocyclohepten-4-yl]phenyl}urea], the IC50 in assay [1] came out at 59 nM; with U87MG tumour cells, 1760 nM. Moreover, the “PI3Ka IC50” value on PI3Kα (p110α/p85α) is >10000 nM. Further, the inhibition (commonly the change of the read-out against control, counted positive when it falls) at 3 µM in the assay on Akt-pS473 in U87MG cells (read-out: U87 Akt-pS473 % Inhibition) turned out to be 80%.

`CCN1CC(C)(C)Oc2nc(N3CCOC[C@@H]3C)nc(-c3ccc(NC(=O)Nc4ccc(N5CCN(C)CC5)cn4)cc3)c2C1=O` [Example 218, 1-{4-[6-Ethyl-8,8-dimethyl-2-((S)-3-methylmorpholin-4-yl)-5-oxo-5,6,7,8-tetrahydro-9-oxa-1,3,6-triazabenzocyclohepten-4-yl]phenyl}-3-[5-(4-methylpiperazin-1-yl)pyridin-2-yl]urea]: the values for the IC50 (in assay [1]; in the assay with U87MG tumour cells; in the assay on Akt-pS473 in U87MG cells) were 58 nM, 211 nM and 17 nM, respectively. At PI3Kα (p110α/p85α), the “PI3Ka IC50” value came to 1060 nM.

On to `CCN1CC(C)(C)Oc2nc(N3CCOC[C@@H]3C)nc(-c3ccc(NC(=O)Nc4ccc(C(=O)NCC(C)(C)O)cc4)cc3)c2C1=O` [Example 219, 4-(3-{4-[6-Ethyl-8,8-dimethyl-2-((S)-3-methylmorpholin-4-yl)-5-oxo-5,6,7,8-tetrahydro-9-oxa-1,3,6-triazabenzocyclohepten-4-yl]phenyl}ureido)-N-(2-hydroxy-2-methylpropyl)benzamide], for which the IC50 in assay [1] was determined as 38 nM; in the assay on U87MG tumour cells it was 436 nM; in the assay with Akt-pS473 in U87MG cells it was 28 nM. Also, the “PI3Ka IC50” value at PI3Kα (p110α/p85α) came out at 98 nM.

As for `CCN1CC(C)(C)Oc2nc(N3CCOC[C@@H]3C)nc(-c3ccc(NC(=O)Nc4ccccn4)cc3)c2C1=O` [Example 221, 1-{4-[6-Ethyl-8,8-dimethyl-2-((S)-3-methylmorpholin-4-yl)-5-oxo-5,6,7,8-tetrahydro-9-oxa-1,3,6-triazabenzocyclohepten-4-yl]phenyl}-3-pyridin-2-ylurea], the IC50 in assay [1] came out at 13 nM; in the assay on U87MG tumour cells it was 137 nM; with Akt-pS473 in U87MG cells it was 11 nM. At PI3Kα (p110α/p85α), the “PI3Ka IC50” value is given as 372 nM.

Regarding `CCN1CC(C)(C)Oc2nc(N3CC4CCC(C3)O4)nc(-c3ccc(NC(=O)OCCO)c(F)c3)c2C1=O` [Example 222, {4-[6-Ethyl-8,8-dimethyl-2-(8-oxa-3-azabicyclo[3.2.1]oct-3-yl)-5-oxo-5,6,7,8-tetrahydro-9-oxa-1,3,6-triazabenzocyclohepten-4-yl]-2-fluorophenyl}carbamic acid 2-hydroxyethyl ester], the IC50 in assay [1] was 123 nM; in the assay with U87MG tumour cells, 1680 nM; in the assay on Akt-pS473 in U87MG cells, 213 nM. Moreover, the “PI3Ka IC50” value on PI3Kα (p110α/p85α) is given as >10000 nM.

Consider `CCN1CC(C)(C)Oc2nc(N3CC4CCC(C3)O4)nc(-c3ccc(NC(=O)Nc4cccnc4)c(F)c3)c2C1=O` [Example 223, 1-{4-[6-Ethyl-8,8-dimethyl-2-(8-oxa-3-azabicyclo[3.2.1]oct-3-yl)-5-oxo-5,6,7,8-tetrahydro-9-oxa-1,3,6-triazabenzocyclohepten-4-yl]-2-fluorophenyl}-3-pyridin-3-ylurea], for which the results for the IC50 (in assay [1]; in the assay with U87MG tumour cells; in the assay on Akt-pS473 in U87MG cells) were 20 nM, 61 nM and 4 nM, respectively. Moreover, on PI3Kα (p110α/p85α), the “PI3Ka IC50” value was determined as 2070 nM.
